According to patent US20100285156A1, “COMPOSITION FOR PREVENTING AND TREATING METABOLIC DISEASES COMPRISING THE EXTRACT OF LYSIMACHIAE FOENUM-GRAECI HERBA” (BRNSCIENCE CO., LTD, priority 2007, published 2010):

Assays:
[1] = test system: ICR male mice given corn oil; assay: Antihyperlipidemic activity, corn oil loaded mice; type: in vivo; settings: plasma, 10 mg/kg, control drug, corn oil 1 g/kg
Description: Five-week-old ICR male mice (obtained from Central Lab. Animal Inc.) were bred in an animal facility where breeding conditions of temperature (20±1° C.), humidity (50±10%), light/dark cycle (12 hours), light intensity (150 to 300 Lux), and ventilation (10 to 20 times/hr) were maintained. Solid feed for laboratory animals (obtained from Cargill Agri Purina Inc.) was freely supplied to the mice, and city water was subjected to steam sterilization and then was freely fed to the mice as drinking water. After acclimation for one week, the […] Herba extract was orally administered to eight mice per group in a concentration of 100 mg/kg, and a saline was orally administered to the control group instead of the extract.

[2] = test system: DIO (Diet Induced-Obesity) mice; assay: Blood metabolic disease marker levels in diet-induced obesity (DIO) mice; type: in vivo, C57BL/6 male mice
Description: Seven-week-old C57BL/6 male mice (obtained from Coretec Inc.) were bred in an animal facility where breeding conditions of temperature (20±1° C.), humidity (50±10%), light/dark cycle (12 hours), light intensity (150 to 300 Lux), and ventilation (10 to 20 times/hr) were maintained. Solid feed (obtained from Folas International Inc.) was freely supplied to the mice, and city water was subjected to steam sterilization and then was freely fed to the mice as drinking water. After acclimation for one week, 60% Kcal solid feed (obtained from Research Diet Inc.) was supplied to the mice, and the Lysimachiae Foenum-Graeci Herba extract was orally administered to the mice for 42 days in an amount of 30, 100, and 300 mg/kg/day. Sibutramine was administered to a positive control group in an amount of 10 mg/kg/day, and 0.5% MC (methyl cellulose) was administered to a negative control group in the same amount. The mice to which the substances were administered for six weeks were fasted for one day, and then were killed using CO2 gas. Blood gathered from the mouse abdominal vena cava was put into EDTA tubes and stored in ice, and then plasma obtained by centrifugation at 3000 rpm for 10 minutes was analyzed using a biochemical auto analyzer (AU400, Olympus, Japan). Also, organs extracted from the mice were immediately frozen by putting them into liquid nitrogen, were stored in a low-temperature refrigerator (−70° C.), and were histologically analyzed.
The contents of triglycerides and cholesterol in the extracted liver tissues were also measured, the results of which are given in FIG. 2.

[3] = plasma, high-fat diet, 10 mg/kg/day, six weeks
[4] = positive control group, summary of Table 1

| Structure (SMILES) | CHO (Cholesterol) [1] | TG (Triglyceride) [1] | ALT (Alanine aminotransferase) [2, 3] | AST (Aspartate aminotransferase) [2, 3] | CHO (Cholesterol) [2, 3] | GLU (Glucose) [2, 3] | TG (Triglyceride) [2, 3] | ALT and glucose levels [2, 4] | AST and cholesterol levels [2, 4] | triglyceride level [2, 4] |
| --- | --- | --- | --- | --- | --- | --- | --- | --- | --- | --- |
| CCCCCCCCCCC[C@@H](C[C@@H]1OC(=O)[C@H]1CCCCCC)OC(=O)[C@H](CC(C)C)NC=O [Xenical] | 148.83 ± 8.26 mg/dL | 311.17 ± 45.56 mg/dL | – | – | – | – | – | – | – | – |
| CC(C)CC(N(C)C)C1(c2ccc(Cl)cc2)CCC1 (stereo not shown) [Sibutramine] | – | – | 64 ± 15.1 IU/L | 172.33 ± 58.4 IU/L | 187.33 ± 15 mg/dL | 182.66 ± 27.3 mg/dL | 91.33 ± 17.0 mg/dL | meaningfully reduced | not changed | rather increased |
